Legend:
[1] = In vitro microsomal metabolic stability assay, human; type: in vitro ADME; settings: human liver microsomes 0.25 mg/mL, 1.0 μM compound, NADPH
Method: (§1) Materials. Rat, Dog, Monkey and Human liver microsomes (20 mg/mL) were obtained from Xenotech, LLC (Lenexa, Kans.). P-nicotinamide adenine dinucleotide phosphate, reduced form (NADPH), magnesium chloride (MgCl2), and dimethyl sulfoxide (DMSO) were purchased from Sigma-Aldrich.
(§2) Methods. […] The 10 mM stock solutions were diluted to 100 μM in DMSO. In each cluster polypropylene tube, 190.7 μL of 100 mM phosphate buffer, pH 7.4 was added, then 2.5 μL of liver mocrosomes (20 mg/mL, rat, dog, monkey or human) was added, then a 2 μL aliquot of the 100 μM test compound was added, and the mixture was pre-warmed for 10 minutes. Reactions were initiated by addition of 4.8 μL of pre-warmed NADPH solution (100 mM in 100 mM phosphate buffer). The final reaction volume was 200 μL and contained 0.25 mg/mL rat, dog, monkey or human liver microsomes, 1.0 μM test compound, and 2.4 mM NADPH in 0.1 M potassium phosphate buffer, pH 7.4. The reaction mixtures were incubated at 37° C., and the reactions were quenched at 0, 15, 30 and 60 minutes by adding 200 μL of ice-cold quench solution (ACN:MeOH:0.1% formic acid in water 2:2:1) containing internal standard, n=3 per time point. The tubes were centrifuged and supernatants were analyzed for amounts of the test compound remaining by LC-MS/MS. The HPLC system included a Phenomenex Luna C8 column, 3 micron, 2 mm diameter×30 mm long eluted with a gradient mobile phase consisting of 0.1% formic acid in water or in acetonitrile. The analytes were detected by MS/MS with Electrospray Ionization (ESI) in the mode of multiple reaction monitoring (MRM). The injection volume was 10 μL.

[2] = target: T1, human NaV 1.8 (Homo sapiens, UniProt Q9Y5Y9); assay: E-VIPR assay for NaV inhibition; type: cell-based; settings: HEK cells expressing human NaV 1.8, E-VIPR, normalised to positive control 25 μM
T1 construct: expressed in transfected cells; host or cells: HEK cells, grown under blasticidin selection; KIR2.1 BacMam virus added before seeding
T1 sequence (Q9Y5Y9 whole entry): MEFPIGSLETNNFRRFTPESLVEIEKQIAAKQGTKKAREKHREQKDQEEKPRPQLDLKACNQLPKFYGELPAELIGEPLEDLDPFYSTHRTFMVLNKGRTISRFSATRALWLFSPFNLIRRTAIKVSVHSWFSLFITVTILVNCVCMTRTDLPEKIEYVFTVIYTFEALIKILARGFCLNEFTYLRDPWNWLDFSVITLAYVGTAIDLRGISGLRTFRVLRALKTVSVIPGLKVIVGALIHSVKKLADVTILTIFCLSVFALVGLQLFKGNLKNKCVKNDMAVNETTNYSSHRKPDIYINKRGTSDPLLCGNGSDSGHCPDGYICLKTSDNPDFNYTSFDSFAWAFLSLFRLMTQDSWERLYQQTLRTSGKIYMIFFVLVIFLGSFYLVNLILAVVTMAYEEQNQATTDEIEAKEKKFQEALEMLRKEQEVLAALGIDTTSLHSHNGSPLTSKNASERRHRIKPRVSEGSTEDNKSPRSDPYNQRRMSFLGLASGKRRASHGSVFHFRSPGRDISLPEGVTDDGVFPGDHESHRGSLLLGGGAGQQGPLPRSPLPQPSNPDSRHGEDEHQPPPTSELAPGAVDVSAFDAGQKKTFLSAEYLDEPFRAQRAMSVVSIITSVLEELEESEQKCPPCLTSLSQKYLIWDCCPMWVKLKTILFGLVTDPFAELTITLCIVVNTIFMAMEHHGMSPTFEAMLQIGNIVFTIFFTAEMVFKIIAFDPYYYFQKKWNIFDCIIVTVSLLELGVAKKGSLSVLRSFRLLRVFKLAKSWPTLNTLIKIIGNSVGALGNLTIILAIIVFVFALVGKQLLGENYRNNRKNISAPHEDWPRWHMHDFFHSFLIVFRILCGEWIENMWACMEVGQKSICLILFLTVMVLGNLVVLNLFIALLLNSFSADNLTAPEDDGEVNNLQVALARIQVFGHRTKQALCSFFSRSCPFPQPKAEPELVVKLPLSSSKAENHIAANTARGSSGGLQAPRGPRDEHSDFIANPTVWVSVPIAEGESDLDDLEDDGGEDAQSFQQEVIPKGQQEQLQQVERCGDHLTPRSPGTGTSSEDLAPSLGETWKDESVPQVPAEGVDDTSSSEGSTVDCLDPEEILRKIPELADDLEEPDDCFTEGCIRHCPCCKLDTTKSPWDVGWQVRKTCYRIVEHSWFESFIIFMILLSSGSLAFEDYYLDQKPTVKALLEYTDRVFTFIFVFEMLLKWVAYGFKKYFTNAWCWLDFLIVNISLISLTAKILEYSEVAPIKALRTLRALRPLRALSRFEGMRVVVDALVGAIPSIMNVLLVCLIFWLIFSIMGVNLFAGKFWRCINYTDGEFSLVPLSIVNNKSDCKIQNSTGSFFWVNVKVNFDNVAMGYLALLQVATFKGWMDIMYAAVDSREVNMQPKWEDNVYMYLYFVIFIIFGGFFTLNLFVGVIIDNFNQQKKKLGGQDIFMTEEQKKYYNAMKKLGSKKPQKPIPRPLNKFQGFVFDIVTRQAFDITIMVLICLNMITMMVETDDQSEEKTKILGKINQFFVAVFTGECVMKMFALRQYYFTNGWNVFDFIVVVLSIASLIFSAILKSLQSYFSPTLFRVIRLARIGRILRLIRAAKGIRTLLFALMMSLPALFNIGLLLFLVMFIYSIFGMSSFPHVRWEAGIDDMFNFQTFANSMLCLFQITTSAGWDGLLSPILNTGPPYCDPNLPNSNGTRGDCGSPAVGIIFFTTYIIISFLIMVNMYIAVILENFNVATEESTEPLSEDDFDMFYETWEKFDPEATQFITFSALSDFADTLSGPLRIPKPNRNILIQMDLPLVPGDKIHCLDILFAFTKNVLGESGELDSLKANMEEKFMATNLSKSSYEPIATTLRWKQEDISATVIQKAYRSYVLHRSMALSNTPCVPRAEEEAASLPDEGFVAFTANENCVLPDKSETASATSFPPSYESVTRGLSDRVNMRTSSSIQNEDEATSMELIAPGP
Source text: Sodium ion channels are voltage-dependent proteins that can be activated by inducing membrane voltage changes by applying electric fields. […] The instrument comprises a microtiter plate handler, an optical system for exciting the coumarin dye while simultaneously recording the coumarin and oxonol emissions, a waveform generator, a current- or voltage-controlled amplifier, and parallel electrode pairs that are inserted into assay plate wells. Under integrated computer control, this instrument passes user-programmed electrical stimulus protocols to cells within the wells of the microtiter plate.
The solution was made by adding 10% Pluronic F127 stock equal to combined volumes of CC2-DMPE and DiSBAC6(3).
Then 25 μL per well from compound plate was transferred to each cell plate.
A pre-stimulus recording was performed for 0.5 seconds to obtain the un-stimulated intensities baseline. The stimulatory waveform was followed by 0.5 seconds of post-stimulation recording to examine the relaxation to the resting state.

[3] = In vivo pharmacokinetic study, rat IV; set-up: species or system Male Sprague Dawley rats
Method: General Procedures. Concentrations of the test compounds in plasma were determined using a high performance liquid chromatography/tandem mass spectrometry (HPLC/MS/MS) method. The test compounds along with the internal standard (IS) were extracted from plasma (20 μL) by direct protein precipitation with acetonitrile (1:25 ratio of plasma/acetonitrile). After centrifugation, the supernatant extract (10 μL) was injected onto the LC/MS/MS system. The HPLC system included a Phenomenex Luna C8 column, 3 micron, 2 mm diameter×30 mm long eluted with a gradient mobile phase consisting of 0.1% formic acid in water or in acetonitrile. The analytes were detected by MS/MS with Electrospray Ionization (ESI) in the mode of multiple reaction monitoring (MRM). The lower limit of quantitation (LLOQ) was 1.00 ng/mL. The linear range of the assay was from 1 to 3000 ng/mL. The assay accuracy was within 20% of the nominal values.
Plasma concentration-time profiles of the test compounds were analyzed by noncompartmental pharmacokinetic methods using PK module in Watson, Version 7.4.2 (Thermo Scientific). Pharmacokinetic parameters including AUCa11, AUC0-∞, C0, Cl, Vss and t1/2 were determined.
Descriptive statistical data of plasma concentrations and pharmacokinetic parameter estimates were calculated, including the mean, standard deviation (SD), and coefficient of variation (% CV) using Microsoft Excel 2010.
Rat IV Study. Compounds 7 and 10 were administered simultaneously in a single intravenous bolus to Male Sprague Dawley rats (n=3) via jugular cannula. The nominal dose of each compound was 0.5 mg/kg. The cassette dosing solution was formulated in D5W with additives Animals had free access to food and water before and after dosing. Blood samples (approximately 0.25 mL each) were collected via a carotid artery catheter prior to dosing and at 0 (predose), 5 min, 10 min, 0.25, 0.5, 1, 2, 4, 8, 12, 24 hours post dose. Each blood sample was collected into a tube that was kept on wet ice and contained potassium EDTA as the anticoagulant. Plasma was separated and stored at approximately −70° C. until analysis.
Plasma samples and dosing solutions were analyzed using a liquid chromatography/tandem mass spectrometry (LC/MS/MS) method to determine the concentrations of Compounds 7 and 10 with a lower limit of quantitation (LLOQ) of 1.00 ng/mL. The average plasma concentrations of Compounds 7 and 10 are plotted in FIG. 5 and are also presented in tabular form in Table 5.
Plasma concentration vs. time data were subjected to noncompartmental pharmacokinetic (PK) analysis. To determined the measured dose of each compound, the dose formulation (50 μL) was aliquoted into a cluster tube at the time of dosing. Then 450 μL of DMSO was added to the tube to dilute it 10×. Then the diluted dosing solution was spiked into rat blank plasma with 100× dilution. The resulting plasma sample was analyzed along with the plasma samples collected from rats that were dosed with the compounds, using the same LC/MS/MS method.

[4] = In vitro microsomal metabolic stability assay, dog; type: in vitro ADME; settings: dog liver microsomes 0.25 mg/mL, 1.0 μM compound, NADPH
Method: as §1, §2

[5] = In vitro microsomal metabolic stability assay, monkey; type: in vitro ADME; settings: monkey liver microsomes 0.25 mg/mL, 1.0 μM compound, NADPH
Method: as §1, §2

[6] = male, Sprague Dawley, plasma, rat IV bolus, cassette, nominal 0.5 mg/kg, noncompartmental analysis

- % remaining ([1]; 0 min): 100%
- % remaining ([1]; 15 min): 109%
- % remaining ([1]; 30 min): 105%
- % remaining ([1]; 60 min): 106%
- Nav1.8 Max % Activity [2]: 98%
- clearance compared with Compound 10 ([3]; in rats, IV): lower
- t1/2 compared with Compound 10 ([3]; in rats, IV): longer
- concentration at 0.083 h ([3]; male, Sprague Dawley, plasma, rat IV bolus, cassette, nominal 0.5 mg/kg, 0.083 hours): 420 ng/mL
- concentration at 0.167 h ([3]; male, Sprague Dawley, plasma, rat IV bolus, cassette, nominal 0.5 mg/kg, 0.167 hours): 399 ng/mL
- concentration at 0.25 h ([3]; male, Sprague Dawley, plasma, rat IV bolus, cassette, nominal 0.5 mg/kg, 0.25 hours): 371 ng/mL
- concentration at 0.5 h ([3]; male, Sprague Dawley, plasma, rat IV bolus, cassette, nominal 0.5 mg/kg, 0.5 hours): 301 ng/mL
- concentration at 1 h ([3]; male, Sprague Dawley, plasma, rat IV bolus, cassette, nominal 0.5 mg/kg, 1 hour): 256 ng/mL
- concentration at 2 h ([3]; male, Sprague Dawley, plasma, rat IV bolus, cassette, nominal 0.5 mg/kg, 2 hours): 208 ng/mL
- concentration at 4 h ([3]; male, Sprague Dawley, plasma, rat IV bolus, cassette, nominal 0.5 mg/kg, 4 hours): 154 ng/mL
- concentration at 8 h ([3]; male, Sprague Dawley, plasma, rat IV bolus, cassette, nominal 0.5 mg/kg, 8 hours): 91.3 ng/mL
- concentration at 12 h ([3]; male, Sprague Dawley, plasma, rat IV bolus, cassette, nominal 0.5 mg/kg, 12 hours): 47.6 ng/mL
- concentration at 24 h ([3]; male, Sprague Dawley, plasma, rat IV bolus, cassette, nominal 0.5 mg/kg, 24 hours): 7.57 ng/mL
- AUC [3, 6]: 937 ng·h/mL
- AUC(0-inf) [3, 6]: 961 ng·h/mL
- C0 [3, 6]: 211 ng/mL
- clearance [3, 6]: 8.07 mL/min/kg
- half-life [3, 6]: 4.4 h
- Vd ([3]; male, Sprague Dawley, plasma, rat IV bolus, cassette, nominal 0.5 mg/kg, noncompartmental analysis, read-out: Vss): 3 L/kg
- % remaining ([4]; 0 min): 100%
- % remaining ([4]; 15 min): 86.1%
- % remaining ([4]; 30 min): 85.8%
- % remaining ([4]; 60 min): 87.5%
- % remaining ([5]; 0 min): 100%
- % remaining ([5]; 15 min): 97.0%
- % remaining ([5]; 30 min): 93.3%
- % remaining ([5]; 60 min): 92.5%
SMILES: [2H]C([2H])([2H])c1cc(F)ccc1Oc1cc(C(F)(F)F)ccc1C(=O)Nc1cc[nH]c(=O)c1 [Compound 7, 2-(4-fluoro-2-(methyl-d3)phenoxy)-N-(2-oxo-1,2-dihydropyridin-4-yl)-4-(trifluoromethyl)benzamide]

Reference: patent publication US11358977B2, “Deuterated pyridone amides and prodrugs thereof as modulators of sodium channels” (VERTEX PHARMACEUTICALS INCORPORATED, priority 2017, dated 2022)
